Assays:
[1] = Acute toxicity in the mouse by the I.P. route; assay type: in vivo; settings: for LD50: read-out: DL-50 (lethal dose involving the death of half of the animals)
From the text: The acute toxicity was studied in the mouse by the I.P. route. It is expressed in the form of DL-50 (lethal dose involving the death of half of the animals) or DL-0 (maximum non-lethal dose).

[2] = Anti-ulcer activity: ulcer caused by aspirin; assay type: in vivo, rat (male Wistar); settings: 100 mg/kg I.P.; aspirin 192 mg/kg per os; standardised to control batch and cimetidine (index 1)
Description: The experiment is carried out on male Wistar rats of 180 to 200 g. The products to be tested are administered at 100 mg/kg I.P. (unless indicated to the contrary in Table IV).
At t=0, the rats are made to fast and a first administration of the product to be tested is made.
At t=18 hours, 2 ml of an ulcer-forming suspension with 192 mg of aspirin/kg are administered per os then a second administration of the product to be tested is made.
At t=22 hours, the animals are sacrificed and the ulcers are marked as follows: small point-like ulcers: mark 1 more extensive ulcers: mark 3 highly extensive or very deep ulcers: mark 9
This marking is standardised with respect to a control batch and to cimetidine (a reference product) to which index 1 has been allocated.

[3] = Veinous thrombosis: veinous anti-thrombus activity; assay type: in vivo; settings: Rattus norvegicus, ip, 100 mg/kg I.P., 4 to 5 hours after administration, read-out: Diminution of veinous thrombus
Description: The technique used is similar to the one described by Peterson-Zucker in Thrombo.Diath.Haemorh. 23, 1, (1970).
An occlusive thrombus is created in the […] vena cava of a rat by the combined action of an endothelial alteration and a veinous stasis for 15 mins. and 4 to 5 hours after administration of the product to be tested (100 mg/kg I.P.).

[4] = Anti-hypoxic activity: survival to hypoxia (nitrogen-oxygen 95:5); assay type: in vivo, mouse (Swiss male); settings: I.P., 1/10th of LD-50 or 100 mg/kg when LD-0 ≥ 800 mg/kg; up to 15 minutes; mouse
Description: The experiment is carried out on batches of 20 Swiss male mice weighing from 20 to 30 g. Each product to be tested is administered to the mice by intraperitoneal route at a dose corresponding to 1/10th of the LD-50 or at a dose of 100 mg/kg when the LD-0 is higher than or equal to 800 mg/kg. The mice are placed in a nitrogen-oxygen (95:5) v/v atmosphere. The survival time of the mice is then measured up to 15 minutes maximum.
The results shown in Table VII are expressed in percentage of survival with respect to a non-treated control batch and a batch treated with an anti-hypoxic reference product [specialty known under the trade name of "Duxil" and which is constituted by a mixture of Almitrine bis-methanesulfonate and of Raubasine in the weight ratio 3:1], the anti-hypoxic reference product being administered at the dose of 18 mg/kg I.P.

[5] = tested on: blood platelet aggregation; experiment: Spontaneous aggregation: blood platelet anti-aggregation activity; assay type: in vivo, rat (adult male); settings: Platelet, t=5 hours, rat; for inhibition in vivo at 100 mg/kg: ip, 100 mg/kg I.P.
Description: The technique used is that of Sanders described in Laboratory Animal Science 27 (No. 5), pages 757-761 (1977).
After administration at 100 mg/kg I.P. (unless specified to the contrary in Table V hereinbelow) of the product to be tested to adult male reproducing rats, two blood samples are taken, one on sodium citrate and the other on sodium citrate treated with formaldehyde at instant t=5 hours.
After centrifugation of the samples, a platelet count is made on the supernatant liquid. The spontaneous aggregation index according to Wu and Hook Stroke 6, 521-524 (1975) is expressed by the relation: [formula]

Structure (SMILES)	DL-0 (maximum non-lethal dose) ([1]; in vivo, ip) [mg/kg IP]	Ulcer index [2]	inhibition in vivo at 100 mg/kg [3] [%]	Survival (survival percentage to hypoxic aggression) [4]	LD50 ([1]; in vivo, ip, I.P.) [mg/kg]	inhibition in vivo at 45 mg/kg ([5]; 45 mg/kg IP) [%]	inhibition in vivo at 100 mg/kg [5] [%]	DL-0 (maximum non-lethal dose) ([1]; I.P.) [mg/kg IP]	inhibition in vivo at 63 mg/kg ([5]; 63 mg/kg IP) [%]
CC(=O)N[C@H]1[C@H](Oc2c(C)cc(C(=O)c3ccc([N+](=O)[O-])cc3)cc2C)O[C@H](CO)[C@@H](O)[C@@H]1O [Example 119]	> 800	0.47	≥ 50	+++ (higher than or equal to 80%)	–	–	–	–	–
Cc1cc(C(O)c2ccccc2C)ccc1O[C@@H]1OC[C@@H](O)[C@H](O)[C@H]1O (stereo partly drawn) [Example 105]	–	–	–	–	450	25 to 39	–	–	–
Cc1cc(C(=O)c2ccccc2C)ccc1O[C@@H]1OC[C@@H](O)[C@H](O)[C@H]1O [Example 85]	–	–	≥ 50	+ (from 30 to 49%)	> 550	–	–	–	–
Cc1ccc(C(=O)c2ccc(O[C@@H]3OC[C@@H](O)[C@H](O)[C@H]3O)cc2)cc1 [Example 12]	> 800	0.26	–	++ (from 50 to 79%)	–	–	25 to 39	–	–
CC(=O)N[C@H]1[C@H](Oc2ccc(C(O)c3ccc([N+](=O)[O-])cc3)cc2)O[C@H](CO)[C@@H](O)[C@@H]1O (stereo partly drawn) [Example 123]	> 800	–	30 to 49	++ (from 50 to 79%)	–	–	–	–	–
O=C(c1ccc(O[C@@H]2OC[C@@H](O)[C@H](O)[C@H]2O)cc1)c1ccccc1O [Example 125]	–	–	30 to 49	+ (from 30 to 49%)	1700	–	–	–	–
CC(=O)N[C@H]1[C@H](Oc2ccc(C(=O)c3ccc(Cl)cc3)cc2)O[C@H](COS(=O)(=O)O)[C@@H](OS(=O)(=O)O)[C@@H]1OS(=O)(=O)O [Example 67, [4-(4-chlorobenzoyl)-phenyl]-3,4,6-tri-(ammonium-sulfate)-2-N-acetyl-β-D-glucosaminide]	–	0.81	30 to 49	–	–	–	25 to 39	> 800	–
OC(c1ccc(Cl)cc1)c1ccc(O[C@@H]2OC[C@@H](O)[C@H](O)[C@H]2O)cc1 (stereo partly drawn) [Example 91]	> 800	0.72	30 to 49	+++ (higher than or equal to 80%)	–	–	–	–	–
CC(=O)O[C@@H]1[C@@H](OC(C)=O)[C@H](Oc2ccc(C(=O)c3ccc(C)cc3)cc2)OC[C@H]1OC(C)=O [Example 76]	> 800	0.38	30 to 49	++ (from 50 to 79%)	–	–	–	–	–
CC(=O)O[C@@H]1[C@@H](OC(C)=O)[C@H](Oc2c(C)cc(C(=O)c3ccccc3Cl)cc2C)OC[C@H]1OC(C)=O [Example 113]	–	–	–	+++ (higher than or equal to 80%)	630	–	–	–	≥ 40
O=[N+]([O-])c1ccc(C(O)c2ccc(O[C@@H]3OC[C@@H](O)[C@H](O)[C@H]3O)cc2)cc1 (stereo partly drawn) [Example 97, [4-(4-nitro-α-hydroxybenzyl)-phenyl]-β-D-xylopyranoside]	–	0.52	≥ 50	–	> 1000	–	≥ 40	–	–
Cc1ccccc1C(O)c1ccc(O[C@@H]2OC[C@@H](O)[C@H](O)[C@H]2O)cc1 (stereo partly drawn) [Example 89]	–	0.88	≥ 50	–	–	–	–	> 800	–
OC(c1ccc(O[C@@H]2OC[C@@H](O)[C@H](O)[C@H]2O)cc1)c1ccccc1Cl (stereo partly drawn) [Example 88]	–	0.39	≥ 50	–	–	–	–	> 800	–
COc1ccc(C(=O)c2cccc(O[C@@H]3OC[C@@H](O)[C@H](O)[C@H]3O)c2)cc1 [Example 54]	–	0.57	30 to 49	–	–	–	≥ 40	> 800	–

From patent publication US4432973A, “Benzoyl- and α-hydroxybenzyl-phenyl-glycosides and application thereof in therapeutics” (Societe de Recherches Industrielles (S.O.R.I.), priority 1980, dated 1984)
